ChEMBL document CHEMBL1201862, “PubChem BioAssay data set” (2004)
Activity calls are given as the source filed them.

Tests used:
[1] = target: Lysosomal acid glucosylceramidase (Homo sapiens, UniProt P04062); assay: Dose response cell-based high throughput screening assay to identify enhancers of beta-glucosidase activity. [Related pubchem assays: 784 ]; format: functional
cells = format: functional
Cytochrome P450 2D6 = Cytochrome P450 2D6 (Homo sapiens, UniProt P10635); assay: qHTS Assay for Inhibitors and Substrates of Cytochrome P450 2D6. [Related pubchem assays: 410 ]; format: ADME; details: read-out: Potency
Bcl-2-like protein 10 = Bcl-2-like protein 10 (Homo sapiens, UniProt Q9HD36); assay: Biochemical TR3 FP assay of Bcl-B inhibitor potency, EC50 (AID 1243); format: functional
[2] = target: Neuropeptide Y receptor type 2 (Homo sapiens, UniProt P49146); assay: Fluorescence-based cell-based high-throughput dose response assay for agonists of NPY-Y2. [Related pubchem assays: 1703 (Screening assay (CNGC inhibitors).), 1359 (Screening assay (NPY-Y2 potentiators or agonists).), 1304 (Screening assay (NPY-Y1 potentiators or agonists).), 1710 (Screening assay (NPY-Y2 agonists).), 1791 (Summary AID.)]; format: functional
[3] = target: Neuropeptide Y receptor type 1 (Homo sapiens, UniProt P25929); assay: Fluorescence-based counterscreen for agonists of NPY-Y2: cell-based high-throughput dose response assay for agonists of NPY-Y1.; format: functional
[4] = target: T1, Heat shock factor protein 1 (Mus musculus, UniProt P38532); assay: HSF1 potentiators in luciferase reporter cells, confirmation, cell-based, NIH3T3, luminescence, dose retest (AID 435004); format: functional;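 also: stress induced by proteasome inhibitor MG132 added 30 min after compound; luciferase reporter driven by HSF1 response element in NIH3T3 cells; actives raise luminescence as potentiators of the MG132 stress response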
T1 sequence (P38532 whole entry): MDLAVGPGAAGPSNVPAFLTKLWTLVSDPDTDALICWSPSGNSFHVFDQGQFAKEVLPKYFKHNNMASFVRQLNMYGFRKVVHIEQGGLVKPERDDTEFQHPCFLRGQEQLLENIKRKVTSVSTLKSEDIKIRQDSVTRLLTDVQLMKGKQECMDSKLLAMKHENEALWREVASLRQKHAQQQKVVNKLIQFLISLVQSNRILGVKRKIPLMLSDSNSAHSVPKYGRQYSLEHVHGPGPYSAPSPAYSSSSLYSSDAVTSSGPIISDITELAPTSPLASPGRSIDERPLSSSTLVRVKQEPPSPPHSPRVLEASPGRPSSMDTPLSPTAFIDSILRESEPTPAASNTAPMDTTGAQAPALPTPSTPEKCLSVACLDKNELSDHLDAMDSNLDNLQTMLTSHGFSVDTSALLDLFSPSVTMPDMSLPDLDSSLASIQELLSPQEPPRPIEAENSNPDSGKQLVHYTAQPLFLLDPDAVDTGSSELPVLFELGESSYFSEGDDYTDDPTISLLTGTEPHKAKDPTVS

HEK293 = assay: Fluorescence-based counterscreen for potentiators or agonists of NPY-Y2: cell-based high-throughput dose response assay to identify inhibitors of cyclic nucleotide gated ion channel (CNGC) activity. In this assay, the parental HEK293 cell line transfected with a cyclic-nucleotide gated ion channel (CNGC)-based cAMP sensor is used to measure inhibition of isoproterenol-induced CNGC activity by test compound.; format: functional; details: Homo sapiens;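 also: stimulus is 1 µM isoproterenol at EC100 plus PDE inhibitor Ro 20-1724 at 25 µM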
[5] = cytotoxicity in HEK-293T cells, dose response, cytotoxicity control for TCR NF-kB inhibitor project, luminescence, T-cell screen hits (AID 489026); format: functional, cell-based;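 also: cells exposed to compound about 14 hours before the viability readout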
[6] = reduction of Shn3 3'UTR firefly luciferase signal, dose response, Schnurri-3 inhibitor project, cell-based, Clone20 osteoblasts, cherry-pick, set 2 (AID 720490); format: functional;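 also: actives lower the luminescence signal as inhibitors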
[7] = ZM109 Env clade C HIV-1 fusion inhibitors, dose response, HeLa effector, CEM target cells, luciferase, cherry-pick (AID 652058); format: functional, cell-based
[8] = inhibitors of clade B AD8 Env fusion, dose response, cell-based, cherry-pick (AID 652062); format: functional;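 also: luciferase signal from cell-cell fusion driven by HIV-1 clade B AD8 Env; potency is for inhibitors of fusion seen as a drop in luminescence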
[9] = target: Luciferin 4-monooxygenase (Photinus pyralis, UniProt P08659); assay: Counter Screen for Luciferase-based Assay Positives. [Related pubchem assays: 620, 618, 411 ]
[10] = Shn3 3'UTR reporter inhibitors, dose response, cell-based, Clone20 osteoblasts, firefly luciferase, cherry-picked (AID 624132); format: functional;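 also: firefly luciferase luminescence from reporter carrying the Shn3 3'UTR in osteoblasts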
[11] = non-specific cell cytotoxicity, dose response, cytotoxicity control for PAX8 inhibitor project, plate reader, dry powder samples (AID 743021); format: functional, cell-based
[12] = off-target signal loss in HeLa-CEM21 co-culture – HeLa F-luc CTL cells, cherry-picked, counter-screen for HIV-1 Env fusion inhibitor project, dose response (AID 652040); format: functional, cell-based;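 also: potency for signal decrease marking cytotoxic or nonspecific inhibition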
[13] = target: T2, Microphthalmia-associated transcription factor (Homo sapiens, UniProt O75030); assay: TRPM1 promoter luciferase signal decrease, dose response, MITF inhibitor project, cell-based, SK-MEL-5, cherry-picked, set 3 (AID 493073); format: functional
T2 sequence (O75030 whole entry): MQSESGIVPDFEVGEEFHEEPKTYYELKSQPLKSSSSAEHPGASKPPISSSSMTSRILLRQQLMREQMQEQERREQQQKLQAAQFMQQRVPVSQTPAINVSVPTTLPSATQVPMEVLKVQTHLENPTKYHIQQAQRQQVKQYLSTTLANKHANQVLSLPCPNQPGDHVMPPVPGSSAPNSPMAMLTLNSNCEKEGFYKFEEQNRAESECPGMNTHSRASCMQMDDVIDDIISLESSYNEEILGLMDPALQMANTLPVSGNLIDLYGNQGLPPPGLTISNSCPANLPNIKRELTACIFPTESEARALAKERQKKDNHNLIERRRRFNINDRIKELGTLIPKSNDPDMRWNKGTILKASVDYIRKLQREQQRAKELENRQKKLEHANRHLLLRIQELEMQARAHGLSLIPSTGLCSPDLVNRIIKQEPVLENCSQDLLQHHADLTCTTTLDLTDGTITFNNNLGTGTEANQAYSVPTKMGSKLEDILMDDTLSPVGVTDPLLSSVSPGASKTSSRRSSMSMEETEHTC

[14] = inhibitors of HIV Env-driven cell fusion, dose response, cherry-pick (AID 652057); format: functional, cell-based
Paired box protein Pax-8 = Paired box protein Pax-8 (Homo sapiens, UniProt Q06710); assay: inhibitors of PAX8-driven TPO luciferase reporter, dose response, RMG-I cells, cherry-pick (AID 687027); format: functional, cell-based;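 also: luciferase reporter driven by Pax8 target thyroperoxidase promoter measured by SteadyGlo luminescence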
[15] = target: T1, Heat shock factor protein 1; assay: inhibition of MG132-induced HSE-luciferase signal, confirmation, cell-based, NIH3T3, luminescence, dose retest (AID 2382); format: functional;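 also: NIH3T3 fibroblasts with HSF1-driven luciferase reporter stressed by proteasome inhibitor MG132; luminescence from HSF1-driven luciferase expression after 8 hours of MG132 stress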
[16] = Luminescence-based counterscreen assay for KLF5 inhibitors: dose response cell-based high throughput screening assay to identify cytotoxic compounds using the IEC-6 intestinal epithelial cell line. [Related pubchem assays: 1700 (Primary screen.), 1834 (Confirmation screen.), 1858 (Summary AID.), 1905 (Counterscreen.)]; format: functional
HT-1080 = assay: cytotoxicity in HT1080 fibrosarcoma cells, cell-based, fluorescence readout (AID 620); format: functional; details: Homo sapiens

Chain of Bcl-2-like protein 10 (Q9HD36 whole entry): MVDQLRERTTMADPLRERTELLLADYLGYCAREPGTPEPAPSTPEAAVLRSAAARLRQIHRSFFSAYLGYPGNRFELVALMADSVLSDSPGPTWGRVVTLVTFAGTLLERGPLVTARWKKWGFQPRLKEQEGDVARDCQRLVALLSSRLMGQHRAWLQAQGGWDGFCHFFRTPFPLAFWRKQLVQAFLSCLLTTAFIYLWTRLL
Chain of Paired box protein Pax-8 (Q06710 whole entry): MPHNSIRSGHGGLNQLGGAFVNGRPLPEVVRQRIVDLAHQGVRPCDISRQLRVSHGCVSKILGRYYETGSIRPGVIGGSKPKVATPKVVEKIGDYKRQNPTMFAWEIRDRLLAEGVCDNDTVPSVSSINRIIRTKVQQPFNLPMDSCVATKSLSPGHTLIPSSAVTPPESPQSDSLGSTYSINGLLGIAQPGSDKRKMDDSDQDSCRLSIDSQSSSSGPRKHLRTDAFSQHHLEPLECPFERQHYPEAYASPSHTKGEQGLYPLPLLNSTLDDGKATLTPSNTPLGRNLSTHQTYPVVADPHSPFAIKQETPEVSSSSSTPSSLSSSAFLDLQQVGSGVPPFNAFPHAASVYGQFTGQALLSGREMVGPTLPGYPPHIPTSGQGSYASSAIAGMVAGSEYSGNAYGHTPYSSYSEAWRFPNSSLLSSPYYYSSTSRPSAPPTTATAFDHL
Chain of Lysosomal acid glucosylceramidase (P04062 whole entry): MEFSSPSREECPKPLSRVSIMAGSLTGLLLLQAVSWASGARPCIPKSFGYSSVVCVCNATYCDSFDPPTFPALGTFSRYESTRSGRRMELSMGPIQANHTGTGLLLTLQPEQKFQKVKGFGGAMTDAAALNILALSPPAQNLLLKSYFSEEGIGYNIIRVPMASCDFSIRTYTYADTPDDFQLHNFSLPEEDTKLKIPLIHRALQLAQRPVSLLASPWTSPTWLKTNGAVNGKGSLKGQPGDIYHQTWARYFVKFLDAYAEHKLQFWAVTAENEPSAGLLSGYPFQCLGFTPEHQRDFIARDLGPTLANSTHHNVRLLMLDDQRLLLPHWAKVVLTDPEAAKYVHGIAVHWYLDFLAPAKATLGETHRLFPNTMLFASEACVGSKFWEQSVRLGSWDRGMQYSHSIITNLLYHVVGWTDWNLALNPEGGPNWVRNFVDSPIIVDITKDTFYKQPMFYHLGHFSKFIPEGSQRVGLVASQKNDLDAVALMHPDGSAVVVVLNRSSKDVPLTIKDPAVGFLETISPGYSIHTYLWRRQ
Chain of Cytochrome P450 2D6 (P10635 whole entry): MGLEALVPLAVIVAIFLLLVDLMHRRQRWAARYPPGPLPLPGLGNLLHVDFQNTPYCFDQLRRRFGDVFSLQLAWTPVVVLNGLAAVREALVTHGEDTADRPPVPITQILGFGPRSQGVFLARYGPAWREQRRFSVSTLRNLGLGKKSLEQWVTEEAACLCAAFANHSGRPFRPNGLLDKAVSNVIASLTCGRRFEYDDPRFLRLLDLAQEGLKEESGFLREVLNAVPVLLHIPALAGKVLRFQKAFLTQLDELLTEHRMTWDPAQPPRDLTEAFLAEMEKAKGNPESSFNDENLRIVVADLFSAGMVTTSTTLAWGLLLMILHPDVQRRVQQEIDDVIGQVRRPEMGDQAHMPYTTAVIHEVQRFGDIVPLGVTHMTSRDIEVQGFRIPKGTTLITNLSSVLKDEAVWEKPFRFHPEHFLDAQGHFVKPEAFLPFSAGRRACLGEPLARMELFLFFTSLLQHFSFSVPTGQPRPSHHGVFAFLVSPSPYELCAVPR
Chain of Neuropeptide Y receptor type 1 (P25929 whole entry): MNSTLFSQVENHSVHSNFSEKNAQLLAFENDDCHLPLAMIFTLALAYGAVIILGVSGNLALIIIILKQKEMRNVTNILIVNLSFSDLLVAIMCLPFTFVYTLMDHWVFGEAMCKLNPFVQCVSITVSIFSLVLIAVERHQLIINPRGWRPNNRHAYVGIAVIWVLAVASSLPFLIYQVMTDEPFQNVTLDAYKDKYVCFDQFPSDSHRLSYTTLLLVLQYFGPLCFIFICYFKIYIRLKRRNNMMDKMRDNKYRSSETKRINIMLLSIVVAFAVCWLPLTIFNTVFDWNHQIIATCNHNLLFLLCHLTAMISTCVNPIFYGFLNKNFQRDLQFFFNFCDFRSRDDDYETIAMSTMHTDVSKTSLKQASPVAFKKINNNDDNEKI
Chain of Neuropeptide Y receptor type 2 (P49146 whole entry): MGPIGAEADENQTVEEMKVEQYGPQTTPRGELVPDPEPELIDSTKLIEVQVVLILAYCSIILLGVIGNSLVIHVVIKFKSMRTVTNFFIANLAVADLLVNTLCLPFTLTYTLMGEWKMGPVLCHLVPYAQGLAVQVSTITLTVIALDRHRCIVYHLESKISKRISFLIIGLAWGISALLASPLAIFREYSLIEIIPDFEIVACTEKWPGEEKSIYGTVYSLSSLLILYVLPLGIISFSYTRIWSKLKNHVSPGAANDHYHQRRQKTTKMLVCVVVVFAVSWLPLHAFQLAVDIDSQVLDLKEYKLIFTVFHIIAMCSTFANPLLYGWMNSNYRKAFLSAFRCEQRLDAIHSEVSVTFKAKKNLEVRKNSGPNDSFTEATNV
Chain of Luciferin 4-monooxygenase (P08659 whole entry): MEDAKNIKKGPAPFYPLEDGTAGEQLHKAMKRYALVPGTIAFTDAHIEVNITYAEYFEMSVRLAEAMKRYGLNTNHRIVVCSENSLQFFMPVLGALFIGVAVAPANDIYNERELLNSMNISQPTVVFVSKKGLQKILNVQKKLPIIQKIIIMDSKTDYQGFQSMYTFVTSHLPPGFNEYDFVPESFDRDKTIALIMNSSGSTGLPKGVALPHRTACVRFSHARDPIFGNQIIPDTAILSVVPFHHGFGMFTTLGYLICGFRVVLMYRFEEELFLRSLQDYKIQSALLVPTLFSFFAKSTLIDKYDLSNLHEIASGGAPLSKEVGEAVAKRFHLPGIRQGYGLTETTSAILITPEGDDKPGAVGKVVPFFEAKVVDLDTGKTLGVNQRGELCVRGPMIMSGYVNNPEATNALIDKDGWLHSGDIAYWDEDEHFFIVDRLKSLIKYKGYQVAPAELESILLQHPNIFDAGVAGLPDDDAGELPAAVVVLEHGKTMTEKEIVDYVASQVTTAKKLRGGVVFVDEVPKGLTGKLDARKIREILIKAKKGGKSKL

CCCCSc1nnc(-c2ccc(C)cc2)o1
EC50 [1]: > 50 µM (not active)
IC50 (cells): 39 µM (active)

C=CCc1cccc(C2C(C)CCC3C(=O)N4C(Cc5c([nH]c6ccccc56)C4c4cc(OC)c(OC)c(OC)c4)C(=O)N32)c1 (configuration not stated)
AC50 (Cytochrome P450 2D6): 3.98 µM (inconclusive)

CN(C)c1ccc(NC(=O)/C=C\C(=O)O)cc1
EC50 (Bcl-2-like protein 10): 20.4 µM (active)

COCCCNC(=O)c1cnc2ccc(S(=O)(=O)N3CCc4ccccc43)cc2c1O
EC50 [2]: > 35.4 µM (not active)
EC50 [3]: > 35.4 µM (not active)
EC50 [4]: > 260 µM (inactive)
EC50 (HEK293): > 35.4 µM (not active)

Cc1ccc(C(=O)Nc2cnc3ccccc3c2)cc1
IC50 [5]: > 80 µM (inactive)
AC50 [6]: 2.3 µM (active)
AC50 [7]: 13.9 µM (active)
AC50 [8]: 4.14 µM (active)
EC50 [9]: > 100 µM (not active)
AC50 [10]: 4.04 µM (active)
AC50 [11]: 46 µM (active)
AC50 [12]: 9.31 µM (active)
AC50 [13]: 1.15 µM (active)
AC50 [14]: 2.29 µM (active)
AC50 (Paired box protein Pax-8): 3.57 µM (active)
EC50 [15]: 4.76 µM (active)
IC50 [16]: > 39.8 µM (not active)
EC50 (HT-1080): > 50 µM (not active)
